# Source: patent publication US9187526B2, “Peptide based inhibition of caPCNA interaction in cancer” (priority 2006, dated 2015)
# Like-named read-outs stand apart in the source and are kept apart here. Where no end group is shown, it is not given here.
# Columns and labels:
# [1] = test system: breast cancer cells; assay: Flow-cytometric analysis of breast cancer cells treated with peptide-containing liposomes (propidium iodide / annexin V); assay type: cell-based
# Method: Exponentially growing breast cancer cells were grown in culture media to 50% of confluence (FIG. 1). The media was then changed and liposomes that were prepared from transfection reagent (PJR) were incubated with the cells in fresh media for an additional 24 hours prior to performing flow-cytometric analysis of the treated cells.
# Liposomes contained either the carboxyl region of the p21waf1 protein, and/or the caPCNA antigenic site peptide (LGIPEQEY) (SEQ ID NO: 1). After 24 hours, the cells were stained with propidium iodide and fluorescently labeled annexin V antibody. Healthy growing cells were not permeable to the antibody as shown in lower left panel of FIG. 1, while permeabilized healthy cells susceptible to the transfection reagent, but still growing, were stained with propidium iodide. Cells staining with the annexin V antibody indicate some level of damage associated with the induction of apoptotic cells (lower right quadrant, FIG. 1), and/or cells that had died from either apoptosis or necrosis (upper right quadrant, FIG. 1). […] Cells treated with only the transfection reagent slightly affected the condition of the cells and lead to a slight increase in the number of apoptotic and necrotic cells. […] In addition, approximately 5-7% of the remaining cells appeared to be undergoing apoptosis and was slated to die.
# [2] = test system: caPCNA binding to caPCNA antibody (caPCNAab); assay: Competition ELISA: caPCNA captured by plate-bound caPCNA antibody (caPCNAab), detected with C20 antibody; parameters: species or system human; conditions: increasing amounts of peptide incubated simultaneously with purified caPCNA
# Method: The wells are washed and then incubated with a goat anti-PCNA antibody (C20) that recognizes the C-terminal 20 amino acids of PCNA. Bound C20 antibody is visualized with an alkaline phosphatase conjugated anti-goat IgG antibody, and bound antibody complex is visualized with […], and quantified by spectrophotometry. The competition experiments shown in this study involve the simultaneous incubation of the ca(cs)PCNA with increasing amounts of the antigenic peptide fragment of caPCNA (referred to as B1 or the PCNA aa126-133 peptide) in this assay.
# The assay described in FIG. 5 was used to test the specificity of the antibody combining site for the epitope defined by PCNA aa126-133 (FIG. 6). The ELISA assay was performed as described in aim 1, however, either the B1 peptide or a peptide sequence (H-Ser-Ala-Cys-Glu-Gln-IIe-Leu-Lys-Asp-Thr-OH) (SEQ ID NO: 28) taken from within the yeast myosin protein was used to compete for the antibody in the presence of purified caPCNA.
# The ELISA described herein was used to monitor the ability of two peptides to disrupt caPCNA binding to the bound caPCNA antibody. One peptide (H-[…]OH) (SEQ ID NO: 29) corresponding to the p21cip/waf1 proteins site of interaction with PCNA was evaluated in this assay, and is shown to have no effect on the binding of caPCNA to the bound caPCNA antibody in this ELISA assay (FIG. 7). […] Therefore, the XPG peptide interacts with its recognized PCNA binding site in order to block binding of the PCNA protein to the caPCNA antibody. This happens if the epitope recognized by the antibody was masked by specifically binding this XPG peptide.
# [3] = test system: U937 leukemia cells; assay: Cytotoxicity in U937 leukemia cell cultures, liposome-mediated peptide transfer, flow cytometry with propidium iodide and annexin V; assay type: cell-based
# Text: Peptide fragments derived from the protein Proliferating Cell Nuclear Antigen (PCNA) are identified herein that have the ability to act, in conjunction with DNA damaging agents (e.g., doxorubicin), to enhance the therapeutic effects of such agents to treat a variety of cancer cells. The peptides are derived from the amino acid sequence within PCNA, for example, encompassing amino acids 126-133. This sequence appears to be uniquely exposed in cancer cells, but not non-cancer cells. By preventing PCNA-binding proteins, including XPG, from binding directly to caPCNA in cancer cells the effects of chemotherapeutic drugs including DNA damaging agents are enhanced. […] Exponentially growing U937 leukemia cell cultures in tissue culture media were used. A liposome mediated protein transfer technique was used wherein the caPCNA peptide (126-133) and doxorubicin were encapsulated in liposomes and added to the cell cultures at 10 μM. […] This approach produced over a 50% killing of the cultured cells within 24 hours that was peptide/drug specific, and not due to liposome mediated cytotoxicity.
# As a positive control, these leukemia cells were also incubated for several hours (either 4 or 24 hours) with a peptide derived from the p21waf protein, and as a negative control, a peptide derived from the yeast myosin protein. […] Cell killing vs. cell damage was assessed by flow cytometry using propidium iodide and annexin V staining.
# [4] = test system: cancer cells; assay: Incubation of RYIRS-tagged caPCNA-derived peptide with cancer cells in vitro (DMSO or liposome uptake); assay type: cell-based; conditions: with doxorubicin
# Method: The peptides disclosed herein are synthesized using standard peptide synthesis procedures and equipments or can be obtained commercially (e.g., United Biochemical Research Co., Seattle, Wash.). […] Uptake of this peptide was initiated by incubation of this peptide with the cancer cells in the presence of dimethyl sulfoxide (DMSO) in either phosphate buffered saline (PBS) or culture media containing 0.2-2% DMSO, without serum for about 4-24 hours. Uptake of this peptide was also efficiently mediated by encapsulation of the peptide in a liposome formulation and subsequent incubation with the cancer cells at 37° C. for about 4-24 hours.
# [5] = molecular target: T1, caPCNA (Homo sapiens, UniProt P12004); assay: XPG-GST fusion protein immunoprecipitation of PCNA isoforms from MCF7 cell extract, 2D-PAGE Western blot; assay type: binding; conditions: 30 μg MCF7 cell extract, 2 h incubation, glutathione agarose beads
# T1 construct: precipitate caPCNA selectively from the MCF7 breast cancer cell extract; endogenous in cells; host or cells: MCF7 cell extract (XPG-GST partner expressed in bacteria)
# Text: MCF7 cell (human breast adenocarcinoma cell line) extracts were processed for purification of the synthesome. MCF7 derived synthesome was then subjected to chromatography steps on phosphocellulose, phenyl Sepharose, and Q-Sepharose matrices as described in (Malkas, L. and Hickey, R. (1996) The expression, purification and characterization of DNA polymerases involved in papovavirus replication. In: Methods in Enzymol Vol. 275: Viral Polymerases and Related Proteins, Acad. Press (133-167).). The Q-Sepharose eluted fraction containing both the nmPCNA and caPCNA isoforms was then loaded onto a XPG-GST affinity column. The column was eluted and both the column flow-through and eluate were subjected to 2D-PAGE Western blot analysis using PC10 antibody. The PC10 antibody was used at a dilution of 1:1000 in the Western blot analysis.
# caPCNA was specifically immunoprecipitated from a MCF7 cell extract using XPG-GST fusion protein (FIG. 3). Thirty microgram samples of MCF7 cell extract were incubated with XPG-GST fusion protein for two hours, followed by incubation with Glutathione agarose beads for one hour to capture the XPG-GST. The mixture was then centrifuged to collect the beads, and the supernatant and the agarose bead pellet containing the XPG-GST PCNA complex were subjected to 2D-PAGE Western blot analysis. The Western blots were then probed using commercially available PC10 antibody.
# T1 sequence (P12004 whole entry, the tested form may be a part, canonical isoform): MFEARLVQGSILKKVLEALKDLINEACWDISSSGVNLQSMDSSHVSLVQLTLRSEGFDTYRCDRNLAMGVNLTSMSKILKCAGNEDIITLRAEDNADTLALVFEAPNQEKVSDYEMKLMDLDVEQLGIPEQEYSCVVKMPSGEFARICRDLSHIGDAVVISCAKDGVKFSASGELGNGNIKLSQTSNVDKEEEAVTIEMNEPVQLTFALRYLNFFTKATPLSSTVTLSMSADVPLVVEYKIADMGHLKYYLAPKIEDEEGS
compound,measurement,setting,value
COc1cccc2c1C(=O)c1c(O)c3c(c(O)c1C2=O)C[C@@](O)(C(=O)CO)C[C@@H]3O[C@H]1C[C@H](N)[C@H](O)[C@H](C)O1 [doxorubicin],cell killing,"[1]; breast cancer cells, low doses of doxorubicin alone",significant level of cell killing
H-Gln-Thr-Gln-Leu-Arg-Ile-Asp-Ser-Phe-Phe-Arg-OH (H-QTQLRIDSFFR-OH) [XPG peptide],competition with caPCNA for binding to the caPCNA antibody,[2],effectively competed
H-Gly-Arg-Lys-Arg-Arg-Gln-Thr-Ser-Met-Thr-Asp-Arg-Tyr-His-Ser-Lys-Arg-Arg-Leu-Ile-Phe-Ser-OH (H-GRKRRQTSMTDRYHSKRRLIFS-OH) [p21cip/waf1 peptide (SEQ ID NO: 29)],competition with caPCNA for binding to the caPCNA antibody,[2],no effect
H-Ser-Ala-Cys-Glu-Gln-IIe-Leu-Lys-Asp-Thr-OH (H-SACEQILKDT-OH) [MAL4],competition with caPCNA for binding to the caPCNA antibody,[2],does not compete
"LGIPEQEY [caPCNA peptide (126-133), LGIPEQEY]",cytotoxic response (cell killing),"[1]; breast cancer cells, peptide alone in liposomes, 24 hours",strong cytotoxic response
same,intrinsic cytotoxicity,"[3]; U937 cells, peptide as single agent, liposome encapsulated, 10 μM",intrinsic cytotoxicity
same,increase of the cytotoxicity of doxorubicin,"[3]; U937 cells, peptide plus a range of concentrations of doxorubicin",approximately 3 fold
LGIPEQEYRYIRS [caPCNA-derived peptide (LGIPEQEY)(RYIRS)],augmentation of cytotoxic effects of chemotherapeutic agents,[4],augments the cytotoxic effects
"XPG-GST fusion protein: 29 amino acid fragment of the XPG protein coupled to Glutathione-S-transferase, expressed in bacteria (LKQLDAQQTQLRIDSFFRLAQQEKEDAKR; also: fused to glutathione-S-transferase)",selective binding/precipitation of caPCNA versus nmPCNA,[5],recognize and precipitate caPCNA selectively
"p21 peptide: peptide derived from the p21waf protein (carboxyl region of p21waf1), positive control (GRKRRQTSMTDRYHSKRRLIFS) [reference compound]",cytotoxic response (cell killing),[1],induced cell killing
same,cell kill,"[3]; U937 leukemia cells, absence of doxorubicin, incubation 4 or 24 hours",> 60%
